Measured values published in article PMC10897476, “Pyridylpiperazine efflux pump inhibitor boosts in vivo antibiotic efficacy against K. pneumoniae” (EMBO Molecular Medicine, 2023).
Values joined by “and” are separate entries in the source; they are usually repeats but may differ in a detail not shown here. Identical values can stand only once. Like-named read-outs stand apart in the source and are kept apart here. Marks after values point to notes of the source that are not given here.

Columns and labels:
Type in all cases: cell-based, Klebsiella pneumoniae
[1] = test system: K. pneumoniae AcrB^V448E; assay: MIC of antibiotics with and without EPI (REMA), AcrB V448E mutant; conditions: for Minimum Inhibitory Concentration: K. pneumoniae AcrB^V448E
Summary of the method: (§1)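 K. pneumoniae ATCC 43816 carrying single chromosomal acrB or ramR mutations introduced by allelic exchange, diluted to OD600 = 0.001 in CAMHB with EPI at final 100 µM. Incubated 37 °C up to 20 h; viability by resazurin fluorescence (Ex 530/Em 590 nm).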

[2] = test system: K. pneumoniae RamR^mut (K124*stop); assay: MIC of antibiotics with and without EPI (REMA), RamR mutant; conditions: for Minimum Inhibitory Concentration: K. pneumoniae RamR^mut
Summary of the method: as §1

[3] = test system: K. pneumoniae ATCC 43816 (WT); assay: Checkerboard assay levofloxacin x EPI, WT strain; conditions: for checkerboard growth readout: ATCC43816 WT, EPI 0 µM; for MIC: Klebsiella pneumoniae; for Median REMA values (percentage resazurin turnover): median n=3; for Median REMA values (percentage resazurin turnover) / percentage resazurin turnover: listed as Lev; for percentage resazurin turnover: individual replicates
Method: (§2) MIC experiments were carried out according to the CLSI guidelines (CLSI [2023]). Overnight cultures were diluted to an OD600 = 0.001 in CAMHB followed by addition of efflux pump inhibitors (EPIs) at a final concentration of 100 µM. […] Plates were incubated at 37 °C for up to 20 h. Bacterial viability was evaluated using the resazurin microtitre assay (REMA) and measured by fluorescence using a Tecan Spaert multimode plate reader (Ex: 530 nm Em: 590 nm). MICs were defined as the concentration that prevented 90% of resazurin turnover compared to the non-treated bacteria.
(§3) Bacterial suspensions, incubation and plate readouts were carried out as described above.

[4] = test system: K. pneumoniae AcrB^V448E; assay: Checkerboard assay levofloxacin x EPI, AcrB V448E mutant; conditions: for checkerboard growth readout: ATCC43816 AcrBV448E, EPI 0 µM; for percentage resazurin turnover: listed as Lev
Method: as §2, §3

[5] = test system: K. pneumoniae RamR^mut (K124*stop); assay: Checkerboard assay levofloxacin x EPI, RamR mutant; conditions: for checkerboard growth readout: ATCC43816 ramRmut, EPI 0 µM; for MIC: Klebsiella pneumoniae
Method: as §2, §3

[6] = test system: K. pneumoniae AcrB^V448E RamR^mut; assay: Checkerboard assay levofloxacin x EPI, double mutant; conditions: ATCC43816 AcrBV448E ramRmut, EPI 0 µM
Method: as §2, §3

[7] = Klebsiella pneumoniae, read-out: Minimum Inhibitory Concentration
[8] = Lev 0.24 ng/mL, BDM91288 0.00 uM
[9] = Lev 0.49 ng/mL, BDM91288 0.00 uM
[10] = Lev 0.98 ng/mL, BDM91288 0.00 uM
[11] = Lev 1.95 ng/mL, BDM91288 0.00 uM
[12] = Lev 3.91 ng/mL, BDM91288 0.00 uM
[13] = Lev 7.81 ng/mL, BDM91288 0.00 uM
[14] = Lev 15.63 ng/mL, BDM91288 0.00 uM
[15] = Lev 31.25 ng/mL, BDM91288 0.00 uM
[16] = Lev 62.50 ng/mL, BDM91288 0.00 uM
[17] = Lev 500.00 ng/mL, BDM91288 0.00 uM
[18] = Lev 1000 ng/mL, BDM91288 0.00 uM

SMILES: C[C@H]1COc2c(N3CCN(C)CC3)c(F)cc3c(=O)c(C(=O)O)cn1c23 [Levofloxacin]
- Minimum Inhibitory Concentration ([1]; + 100 µM 1'): 0.03 mg/L
- Minimum Inhibitory Concentration ([1]; + 100 µM 5): 0.03 mg/L
- Minimum Inhibitory Concentration ([1]; + 100 µM PAβN): 0.02^# mg/L
- MIC [1, 7]: 0.04 µg/mL
- Minimum Inhibitory Concentration ([2]; + 100 µM 1'): 0.08^# mg/L
- Minimum Inhibitory Concentration ([2]; + 100 µM 5): 0.05^# mg/L
- Minimum Inhibitory Concentration ([2]; + 100 µM PAβN): 0.04^# mg/L
- MIC [2, 7]: 0.64 µg/mL
- checkerboard growth readout ([3]; levofloxacin 4 ng/mL): 114 and 99
- checkerboard growth readout ([3]; levofloxacin 8 ng/mL): 102 and 104
- checkerboard growth readout ([3]; levofloxacin 15.625 ng/mL): 112 and 95
- checkerboard growth readout ([3]; levofloxacin 31.25 ng/mL): 88 and 69
- MIC ([3]; ATCC43816, read-out: levofloxacin MIC (checkerboard)): 0.0625 µg/mL
- MIC ([3]; ATCC43816, read-out: levofloxacin boosted MIC (checkerboard)): 0.016 µg/mL
- Median REMA values (percentage resazurin turnover) ([3]; Lev 0.24 ng/mL + EPI 0.00 uM): 82% and 111%
- Median REMA values (percentage resazurin turnover) ([3]; Lev 0.49 ng/mL + EPI 0.00 uM): 103% and 87%
- Median REMA values (percentage resazurin turnover) ([3]; Lev 0.98 ng/mL + EPI 0.00 uM): 102% and 101%
- percentage resazurin turnover ([3]; Lev 1.95 ng/mL + EPI 0.00 uM): 92% and 97%
- Median REMA values (percentage resazurin turnover) ([3]; Lev 1.95 ng/mL + EPI 0.00 uM): 101% and 92%
- percentage resazurin turnover ([3]; Lev 3.91 ng/mL + EPI 0.00 uM): 128% and 114% and 108%
- Median REMA values (percentage resazurin turnover) ([3]; Lev 3.91 ng/mL + EPI 0.00 uM): 99% and 114%
- percentage resazurin turnover ([3]; Lev 7.81 ng/mL + EPI 0.00 uM): 102% and 106% and 72%
- Median REMA values (percentage resazurin turnover) ([3]; Lev 7.81 ng/mL + EPI 0.00 uM): 104% and 102%
- percentage resazurin turnover ([3]; Lev 15.63 ng/mL + EPI 0.00 uM): 100% and 112% and 143%
- Median REMA values (percentage resazurin turnover) ([3]; Lev 15.63 ng/mL + EPI 0.00 uM): 95% and 112%
- percentage resazurin turnover ([3]; Lev 31.25 ng/mL + EPI 0.00 uM): 88% and 76% and 139%
- Median REMA values (percentage resazurin turnover) ([3]; Lev 31.25 ng/mL + EPI 0.00 uM): 69% and 88%
- percentage resazurin turnover ([3]; Lev 62.50 ng/mL + EPI 0.00 uM): -0.208% and 0.0384% and 0.176%
- Median REMA values (percentage resazurin turnover) ([3]; Lev 62.50 ng/mL + EPI 0.00 uM): -0.588% and 0.0384%
- percentage resazurin turnover ([3]; Lev 500.00 ng/mL + EPI 0.00 uM): -0.171% and 0.0154% and 0.238%
- Median REMA values (percentage resazurin turnover) ([3]; Lev 500.00 ng/mL + EPI 0.00 uM): -0.604% and 0.0154%
- percentage resazurin turnover ([3]; Lev 1000 ng/mL + EPI 0.00 uM): -0.203% and 0.204% and -0.0468%
- Median REMA values (percentage resazurin turnover) ([3]; Lev 1000 ng/mL + EPI 0.00 uM): -0.268% and -0.0468%
- checkerboard growth readout ([4]; levofloxacin 4 ng/mL): 107 and 101
- checkerboard growth readout ([4]; levofloxacin 8 ng/mL): 111 and 91
- checkerboard growth readout ([4]; levofloxacin 15.625 ng/mL): 117 and 89
- checkerboard growth readout ([4]; levofloxacin 31.25 ng/mL): 91 and 81
- Median REMA values [4, 8]: 88%
- percentage resazurin turnover [4, 8]: 93% and 88% and 53%
- Median REMA values ([4]; Lev 0.24 ng/mL, PABN 0.00 uM): 81%
- percentage resazurin turnover ([4]; Lev 0.24 ng/mL, PABN 0.00 uM): 88% and 81% and 56%
- Median REMA values [4, 9]: 105%
- percentage resazurin turnover [4, 9]: 102% and 108% and 105%
- Median REMA values ([4]; Lev 0.49 ng/mL, PABN 0.00 uM): 70%
- percentage resazurin turnover ([4]; Lev 0.49 ng/mL, PABN 0.00 uM): 68% and 101% and 70%
- Median REMA values [4, 10]: 98%
- percentage resazurin turnover [4, 10]: 98% and 105% and 79%
- Median REMA values ([4]; Lev 0.98 ng/mL, PABN 0.00 uM): 106%
- percentage resazurin turnover ([4]; Lev 0.98 ng/mL, PABN 0.00 uM): 106% and 107% and 72%
- Median REMA values [4, 11]: 108%
- percentage resazurin turnover [4, 11]: 108% and 109% and 104%
- Median REMA values ([4]; Lev 1.95 ng/mL, PABN 0.00 uM): 104%
- percentage resazurin turnover ([4]; Lev 1.95 ng/mL, PABN 0.00 uM): 104% and 118% and 78%
- Median REMA values [4, 12]: 107%
- percentage resazurin turnover [4, 12]: 107% and 111% and 81%
- Median REMA values ([4]; Lev 3.91 ng/mL, PABN 0.00 uM): 101%
- percentage resazurin turnover ([4]; Lev 3.91 ng/mL, PABN 0.00 uM): 101% and 111% and 73%
- Median REMA values [4, 13]: 111%
- percentage resazurin turnover [4, 13]: 111% and 76%
- Median REMA values ([4]; Lev 7.81 ng/mL, PABN 0.00 uM): 91%
- percentage resazurin turnover ([4]; Lev 7.81 ng/mL, PABN 0.00 uM): 91% and 110% and 79%
- Median REMA values [4, 14]: 117%
- percentage resazurin turnover [4, 14]: 117% and 105%
- Median REMA values ([4]; Lev 15.63 ng/mL, PABN 0.00 uM): 89%
- percentage resazurin turnover ([4]; Lev 15.63 ng/mL, PABN 0.00 uM): 119% and 89% and 72%
- Median REMA values [4, 15]: 91%
- percentage resazurin turnover [4, 15]: 91% and 87% and 102%
- Median REMA values ([4]; Lev 31.25 ng/mL, PABN 0.00 uM): 81%
- percentage resazurin turnover ([4]; Lev 31.25 ng/mL, PABN 0.00 uM): 81% and 70%
- Median REMA values [4, 16]: -0.206%
- percentage resazurin turnover [4, 16]: -0.206% and -0.287% and -0.155%
- Median REMA values ([4]; Lev 62.50 ng/mL, PABN 0.00 uM): -0.817%
- percentage resazurin turnover ([4]; Lev 62.50 ng/mL, PABN 0.00 uM): -0.685% and -0.817% and -0.819%
- Median REMA values [4, 17]: -0.289%
- percentage resazurin turnover [4, 17]: -0.289% and -0.371% and 0.114%
- Median REMA values ([4]; Lev 500.00 ng/mL, PABN 0.00 uM): -0.75%
- percentage resazurin turnover ([4]; Lev 500.00 ng/mL, PABN 0.00 uM): -0.676% and -1% and -0.75%
- Median REMA values [4, 18]: 0.0503%
- percentage resazurin turnover [4, 18]: 0.0503% and -0.121% and 0.102%
- Median REMA values ([4]; Lev 1000 ng/mL, PABN 0.00 uM): -0.383%
- percentage resazurin turnover ([4]; Lev 1000 ng/mL, PABN 0.00 uM): -0.346% and -0.646% and -0.383%
- checkerboard growth readout ([5]; levofloxacin 4 ng/mL): 106 and 109
- checkerboard growth readout ([5]; levofloxacin 8 ng/mL): 110 and 118
- checkerboard growth readout ([5]; levofloxacin 15.625 ng/mL): 111 and 109
- checkerboard growth readout ([5]; levofloxacin 62.5 ng/mL): 111 and 123
- checkerboard growth readout ([5]; levofloxacin 250 ng/mL): 61 and 91
- MIC ([5]; read-out: levofloxacin MIC (checkerboard)): 0.5 µg/mL
- MIC ([5]; read-out: levofloxacin boosted MIC (checkerboard)): 0.016 µg/mL
- checkerboard growth readout ([6]; levofloxacin 4 ng/mL): 105 and 97
- checkerboard growth readout ([6]; levofloxacin 8 ng/mL): 113 and 94
- checkerboard growth readout ([6]; levofloxacin 15.625 ng/mL): 114 and 99
- checkerboard growth readout ([6]; levofloxacin 31.25 ng/mL): 121 and 95
- checkerboard growth readout ([6]; levofloxacin 62.5 ng/mL): 141 and 104
- checkerboard growth readout ([6]; levofloxacin 250 ng/mL): 148 and 137
- checkerboard growth readout ([6]; levofloxacin 500 ng/mL): 131 and 124
